Source: US6500853B1, “Inhibitors of phospholipase enzymes” (Genetics Institute, LLC, priority 1998, dated 2002)
One block for each compound: values may come before it.

Biological target: T1, cPLA2 (Homo sapiens, UniProt P47712)
T1 sequence (P47712 1-749): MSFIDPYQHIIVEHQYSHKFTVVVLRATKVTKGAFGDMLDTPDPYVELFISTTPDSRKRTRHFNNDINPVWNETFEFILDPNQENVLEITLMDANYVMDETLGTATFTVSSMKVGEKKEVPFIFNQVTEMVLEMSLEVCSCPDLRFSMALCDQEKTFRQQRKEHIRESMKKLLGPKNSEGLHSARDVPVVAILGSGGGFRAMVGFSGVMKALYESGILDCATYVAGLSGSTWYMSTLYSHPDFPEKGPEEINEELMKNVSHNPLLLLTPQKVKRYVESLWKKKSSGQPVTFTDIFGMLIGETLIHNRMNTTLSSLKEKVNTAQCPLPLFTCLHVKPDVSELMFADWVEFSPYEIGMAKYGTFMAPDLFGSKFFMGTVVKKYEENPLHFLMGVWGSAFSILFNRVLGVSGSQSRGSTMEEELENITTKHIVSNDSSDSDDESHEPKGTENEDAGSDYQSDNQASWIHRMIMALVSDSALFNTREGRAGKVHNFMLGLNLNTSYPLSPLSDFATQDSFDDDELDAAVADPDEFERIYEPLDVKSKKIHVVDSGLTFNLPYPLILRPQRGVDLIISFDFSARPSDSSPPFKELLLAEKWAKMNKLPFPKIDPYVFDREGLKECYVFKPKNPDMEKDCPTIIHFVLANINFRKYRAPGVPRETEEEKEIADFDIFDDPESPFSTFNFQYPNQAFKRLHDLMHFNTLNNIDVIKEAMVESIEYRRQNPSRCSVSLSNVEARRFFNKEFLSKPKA
Test: Coumarin Assay (cPLA2 inhibition)
Assay type: biochemical
Procedure: Table I reports data for the compounds described in the examples above in cPLA2 inhibition assays (described below). In the data columns of Tables I and II, assay results are reported as a percent inhibition at the concentration specified.
7-hydroxycoumarinyl 6-heptenoate was used as a monomeric substrate for cPLA2 as reported previously (Huang, Z. et al., 1994, Nalytical Biochemistry 222, 110-115). Inhibitors were mixed with 200 μL assay buffer (80 mM Heped, pH 7.5, 1 mM EDTA) containing 60 μM 7-hydroxycoumarinyl 6-heptenoate. The reaction was initiated by adding 4 μg cPLA2 in 50 μL assay buffer. Hydrolysis of the 7-hydroxycounarimyl 6-heptenoate ester was monitored in a fluorometer by exciting at 360 nm and monitoring emission at 460 nm. Enzyme activity is proportional to the increase in emission at 460 nm per minute. In the presence of a cPLA2 inhibitor, the rate of increase is less. The percent inhibition for corresponding concentrations of compounds herein in this Coumarin assay are provided below in Table I.

Structure (SMILES): Cn1c(CSc2ccc3ccccc3c2)c(C(=O)C(=O)Nc2cccc(C(=O)O)c2)c2cc(OCc3ccccc3)ccc21 [Example 113, 3-[(2-{5-(benzyloxy)-1-methyl-2-[(2-naphthylsulfanyl)methyl]-1H-indol-3-yl}-2-oxoacetyl)amino]benzoic acid]
inhibition at 7.5 µM (CONCENTRATION 7.5 micromolar, read-out: PERCENT INHIBITION @): 50%
inhibition at 8 µM (CONCENTRATION 8 micromolar, read-out: PERCENT INHIBITION @): 50%

Structure (SMILES): Cc1c(C(=O)Nc2cc(C(=O)O)cc(C(=O)O)c2)c2cc(OCc3ccccc3)ccc2n1Cc1ccc2ccccc2c1 [Example 110, 5-({[5-(benzyloxy)-2-methyl-1-(2-naphthylmethyl)-1H-indol-3-yl]carbonyl}amino)isophthalic acid]
inhibition at 46 µM (CONCENTRATION 46 micromolar, read-out: PERCENT INHIBITION @): 50%
inhibition at 47 µM (CONCENTRATION 47 micromolar, read-out: PERCENT INHIBITION @): 50%

Structure (SMILES): COc1ccc(C(c2ccc(OC)cc2)n2cc(Cc3ccc(C(=O)O)cc3OC)c3ccc(Cl)cc32)cc1 [Example 134, ′4-({1-[bis(4-methoxyphenyl)methyl]-6-chloro-1H-indol-3-yl}methyl)-3-methoxybenzoic acid]
PERCENT INHIBITION @ (CONCENTRATION 0.8 micromolar): 50%

Structure (SMILES): O=C(O)/C=C/COc1ccc(Cc2cn(C(c3ccccc3)c3ccccc3)c3cc(Cl)ccc23)cc1 [Example 122, (E)-4-{4-[(1-benzhydryl-6-chloro-1H-indol-3-yl)methyl]phenoxy}-2-butenoic acid]
inhibition at 1.25 µM (CONCENTRATION 1.25 micromolar, read-out: PERCENT INHIBITION @): 64%

Structure (SMILES): COc1cc(C(=O)O)ccc1Cc1cn(Cc2ccncc2)c2ccc(NC(=O)OC3CCCC3)cc12 [Example 6, 4-{[5-{[(cyclopentyloxy)carbonyl]amino}-1-(4-pyridinylmethyl)-1H-indol-3-yl]methyl}-3-methoxybenzoic acid]
inhibition at 100 µM (CONCENTRATION 100 micromolar, read-out: PERCENT INHIBITION @): 11%
inhibition at 200 µM (CONCENTRATION 200 micromolar, read-out: PERCENT INHIBITION @): 50%

Structure (SMILES): CCCn1cc(Cc2ccc(C(=O)NS(=O)(=O)c3ccccc3C)cc2OC)c2cc(NC(=O)OC3CCCC3)ccc21 [Example 20, Cyclopentyl N-{3-[2-methoxy-4-({[(2-methylphenyl)sulfonyl]amino}carbonyl)benzyl]-1-propyl-1H-indol-5-yl}carbamate]
inhibition at 25 µM (CONCENTRATION 25 micromolar, read-out: PERCENT INHIBITION @): 50%
inhibition at 32 µM (CONCENTRATION 32 micromolar, read-out: PERCENT INHIBITION @): 50%

Structure (SMILES): O=C(O)Cc1cn(CC2CC2)c2ccc(-c3cccs3)cc12 [Example 78, 2-[1-(cyclopropylmethyl)-5-(2-thienyl)-1H-indol-3-yl]acetic acid]
inhibition at 80 µM (CONCENTRATION 80 micromolar, read-out: PERCENT INHIBITION @): 50%
inhibition at 110 µM (CONCENTRATION 110 micromolar, read-out: PERCENT INHIBITION @): 50%

Structure (SMILES): COc1cc(C(=O)NS(=O)(=O)c2ccccc2C)ccc1Cc1cn(C(c2ccccc2)c2ccccc2)c2ccc([N+](=O)[O-])cc12 [Example 36, N-{4-[(1-benzhydryl-5-nitro-1H-indol-3-yl)methyl]-3-methoxybenzoyl}-2-methylbenzenesulfonamide]
inhibition at 0.22 µM (CONCENTRATION 0.22 micromolar, read-out: PERCENT INHIBITION @): 50%
inhibition at 0.25 µM (CONCENTRATION 0.25 micromolar, read-out: PERCENT INHIBITION @): 60%
inhibition at 0.32 µM (CONCENTRATION 0.32 micromolar, read-out: PERCENT INHIBITION @): 50%
inhibition at 0.45 µM (CONCENTRATION 0.45 micromolar, read-out: PERCENT INHIBITION @): 50%

Structure (SMILES): O=C(O)C1CC1Cc1cn(C(c2ccccc2)c2ccccc2)c2cc(Cl)c(Cl)cc12 (stereo not drawn) [Example 128, 2-[(1-benzhydryl-5,6-dichloro-1H-indol-3-yl)methyl]cyclopropanecarboxylic acid]
inhibition at 0.9 µM (CONCENTRATION 0.9 micromolar, read-out: PERCENT INHIBITION @): 50%

Results, then the compound that gave them:

inhibition at 1.5 µM (Conc 1.5 uM, read-out: % Inhibition): 50%
Structure (SMILES): O=C(O)c1ccc(OCCc2c(COCc3ccc(F)cc3F)n(C(c3ccccc3)c3ccccc3)c3ccc(Cl)cc23)cc1 [Example 162, 4-[2-(1-benzhydryl-5-chloro-2{[(2,4-difluorobenzyl)oxy]methyl}-1H-indol-3-yl)ethoxy]benzoic acid]

inhibition at 2 µM (Conc 2 uM, read-out: % Inhibition): 50%
Structure (SMILES): O=C(O)c1ccc(OCCc2c(COCc3ccccc3)n(C(c3ccccc3)c3ccccc3)c3ccc(Cl)cc23)cc1 [Example 160, 4-(2-{1-benzhydryl-2-[(benzyloxy)methyl]-5-chloro-1H-indol-3-yl}ethoxy)benzoic acid]

inhibition at 4.2 µM (Conc 4.2 uM, read-out: % Inhibition): 50%
Structure (SMILES): O=C(O)c1ccc(OCCc2c(COCc3ccncc3)n(C(c3ccccc3)c3ccccc3)c3ccc(Cl)cc23)cc1 [Example 159, 4-(2-{1-benzhydryl-5-chloro-2-[(4-pyridinylmethoxy)methyl]-1H-indol-3-yl}ethoxy)benzoic acid]

inhibition at 2.4 µM (Conc 2.4 uM, read-out: % Inhibition): 50%
Structure (SMILES): Cc1c(CCS(=O)(=O)c2ccc(C(=O)O)cc2)c2cc(Cl)ccc2n1C(c1ccccc1)c1ccccc1 [Example 147, 4-{[2-(1-benzhydryl-5-chloro-2-methyl-1H-indol-3-yl)ethyl]sulfonyl}benzoic acid]
